Measurements as given in patent publication US6495376B1, “Methods and compositions for regulating protein-protein interactions” (Beth Israel Deaconess Medical Center, priority 1999, dated 2002).

Legend:
[1] = molecular target: […] (Pro-Rich); experiment: Fluorescence anisotropy binding to fluorescein-labeled Pro-rich peptide; conditions: GST-WW-domains; † estimated Kd, no plateau at 100 μM WW-domain
[2] = tested on: temperature-sensitive ptf1 yeast mutant (YPM2); experiment: Rescue of temperature-sensitive ptf1 yeast mutant (in vivo function); assay type: cell-based; conditions: YPM2 cells, restrictive temperature
Description: Given the essential role of the WW-domain in conferring Pin1-binding specificity in vitro, a critical question is whether this domain is important in vivo. To address this question, experiments using the PIN1 yeast homologue, ESS1/PTF1 were performed. ESS1/PTF1 is essential for cell growth and human Pin1 can carry out this essential function when transfected into yeast cells (Lu, K. P. et al., Nature 380:544 (1996); Hanes, S. D. et al., Yeast 5:55 (1989); Hani, J. et al., FEBS Lett. 365:198 (1995)). A temperature-sensitive ptf1 mutant strain, YPM2, grows at the permissive temperature (23° C.), but not at the restrictive temperature (30° C.) (Hanes, S. D. et al., Yeast 5:55 (1989); Hani, J. et al., FEBS Lett. 365:198 (1995)). This phenotype is completely rescued by a 1.5 kb PTF1 genomic fragment, which also contains the promoter and the 3′ processing sequence (FIG. 3). To insure that all human Pin1 proteins were expressed at physiological levels under normal regulation, the coding sequence of the fully functional ESS1/PTF1 gene in a Yepvector was replaced with the coding sequence of the human PIN1 (or Pin1 mutant) cDNA (FIG. 3) and transformed into a temperature-sensitive ptf1 strain. Transformants were selected on minimal media minus Leu at the permissive temperature (23° C.) and protein expression was detected by immunoblotting analysis using 12CA5 monoclonal antibody specific for the HA epitope tag inserted at the N-terminus. […] Those strains expressing similar levels of Pin1 and Pin1 mutants were grown at permissive and nonpermissive temperature.

[3] = tested on: neurofibrillary tangles in AD brain sections; experiment: Binding of recombinant Pin1 added onto brain sections, immunostaining; set-up: species or system human; conditions: Pin1 at 0.5 μM
Description: To further confirm that Pin1 has specific affinity for PHFs, recombinant Pin1 was added onto brain sections, washed, and then subjected to immunostaining using affinity purified Pin1 antibodies to localize bound Pin1. To localization exogenously added Pin1 in brain sections, 50 μm sections were cut from formalin fixed frontal cortex or hippocampus of human brains, endogenous peroxidase activity blocked with H2O2, followed by incubation with Pin1 at 0.5 μM. The sections were incubated with the mAb TG3 or anti-Pin1 antibodies that had been purified using GST-Pin1 glutathione beads, and visualized by the immunoperoxidase staining protocol, to detect endogenous Pin1, fixed brain sections were first microwaved in an antigen retrieval buffer (Biogenex), as described by the manufacturer, then subjected to immunostaining procedure.

Substance | Kd (μM) Pro-Rich IPGTPPPNYD [1] | complementation of temperature-sensitive ptf1 phenotype (in words) [2] | binding in AD brain sections [3]
Pin1 WW-domain: N-terminal WW-domain (amino acids 1-54) of Pin1 (MADEEKLPPGWEKRMSRSSGRVYYFNHITNASQWERPSGNSSSGGKNGQGEPAR; left off: a dimerising Fc or GST) | N.B. |  | 
Pin1: wild-type human prolyl isomerase (PPIase) Pin1 with N-terminal WW-domain; tag cleaved in Table 2 |  | fully complemented the temperature-sensitive phenotype | strongly bound neurofibrillary tangles and neurites
